Measured values: publication PMC9686514, “Design of Antimicrobial Peptides with Cell-Selective Activity and Membrane-Acting Mechanism against Drug-Resistant Bacteria” (Antibiotics, 2022)
Where no end group is shown, it is not given here.

Columns and labels:
Type in all cases: cell-based
[1] = system: Bacillus subtilis (KCTC 1998); details: KCTC 1998, 24 h, pH 7.2
Source text: (§1) Pseudomonas aeruginosa (ATCC 15692), Escherichia coli (ATCC 25922), and Staphylococcus aureus (ATCC 25923) were purchased from the American Type Culture Collection. Listeria monocytogens (KCTC 3710) and Bacillus subtilis (KCTC 1998) were from the Korean Collection for Type Cultures. Drug-resistant S. aureus (DRSa-001~005) and P. aeruginosa (DRPa-001~005) were collected from Paik Hospital of Inje University in Busan, South Korea. Pre-cultured bacteria grown to mid-log phase were suspended in 10 mM sodium phosphate (SP, pH 7.2) or phosphate-buffered saline (PBS, pH 7.2) with 10% culture media. Bacterial suspensions were added to each peptide dilute (final 5 × 10^5 colony-forming units (cfu)/mL), after which the plates were incubated at 37 °C for 24 h. The turbidity of each well was measured at the absorbance at 600 nm and the morphology of bacterial growth was observed under light microscopy. MICs (Minimum inhibitory concentrations) were defined as the lowest concentration of peptide that expresses the complete inhibition of bacterial growth.

[2] = system: Escherichia coli (ATCC 25922); details: ATCC 25922, 24 h, pH 7.2
Source text: as §1

[3] = system: Staphylococcus aureus (ATCC 25923); details: ATCC 25923, 24 h, pH 7.2
Source text: as §1

[4] = system: Listeria monocytogenes (KCTC 3710); details: KCTC 3710, 24 h, pH 7.2
Source text: as §1

[5] = system: Pseudomonas aeruginosa (ATCC 15692); details: ATCC 15692, 24 h, pH 7.2
Source text: as §1

[6] = system: rat red blood cells; experiment: Hemolysis; details: 6.25 µM; 8% (v/v) rat RBCs in PBS, 1 h, 37 °C, absorbance 414 nm
Method: Fresh rat erythrocytes were collected and washed by centrifugation at 1000× g for 10 min with PBS. The rat RBCs (8% (v/v)) were added in a two-fold serially diluted peptide with PBS, followed by incubation for 1 h at 37 °C. After centrifugation of samples at 1000× g for 10 min, the supernatants were collected and their absorbance was measured at 414 nm. The 8% RBCs dissolved in PBS and RBCs treated with Triton X-100 were considered as the negative and positive controls, respectively. The hemolysis activity was calculated using the formula, % hemolysis = [(Abssample − Absnegative)/(Abspositive − Absnegative)] × 100 [43, 44].

[7] = system: HaCaT (human keratinocyte) cells; experiment: Cytotoxicity (MTT); details: 200 µM, 24 h, 37 °C
Method: To examine the cytotoxic effect of peptides, HaCaT (human keratinocyte) cells were sub-cultured in Dulbecco’s modified Eagle medium (DMEM) containing 10% fetal bovine serum, 100 µg/mL streptomycin, and 100 U/mL penicillin at 37 °C in a 5% CO2 chamber. The cells seeded into 4 × 10^3 cells/well were incubated for 24 h. Peptide solutions diluted with DMEM were incubated with cells for 24 h at 37 °C. 3-(4,5-Dimethyl-2-thiazolyl)-2,5-diphenyltetrazolium Bromide (MTT) solution was added to the cells, followed by additional incubation for 4 h. After removing the media, 200 µL of dimethyl sulfoxide was added to the wells. Absorbance of each well was measured at 570 nm using a microtiter reader (Molecular Devices Emax, CA, USA).

MIC, Bs [1] | MIC, Bs (numbers in parentheses) [1] | MIC, Ec [2] | MIC, Ec (numbers in parentheses) [2] | MIC, Sa [3] | MIC, Sa (numbers in parentheses) [3] | MIC, Lm [4] | MIC, Lm (numbers in parentheses) [4] | MIC, Pa [5] | MIC, Pa (numbers in parentheses) [5] | Compound | Hemolytic effect [6] | Cell survival [7]
2 µM | 8 µM | 8 µM | 32 µM | 8 µM | 64 µM | 2 µM | 16 µM | 8 µM | 32 µM | WIKKIWKKIK-NH2 [WIK-10] | – | –
1 µM | 2 µM | 4(4) μM | 4(4) μM | 4 µM | 8 µM | 0.5 µM | 1 µM | 2(2) μM | 2(2) μM | KKIWKKWIKKIIKI-NH2 [KWI-14] | – | –
4 µM | 32 µM | 8 µM | 64 µM | 16 µM | 128 µM | 4 µM | 128 µM | 16 µM | 64 µM | KKIIKKIWKW-NH2 [KIW-10] | – | –
1(1) μM | 1(1) μM | 4(4) μM | 4(4) μM | 2((2) μM | 2((2) μM | 0.5 µM | 1 µM | 2(2) μM | 2(2) μM | WIKKIWKKIIKKIK-NH2 [WIK-14] | – | –
2 µM | 32 µM | 8 µM | 64 µM | 16 µM | 128 µM | 2 µM | 64 µM | 16 µM | 64 µM | KKIWKKWIKI-NH2 [KWI-10] | – | –
1 µM | 2 µM | 4(4) μM | 4(4) μM | 4 µM | 8 µM | 0.5 µM | 1 µM | 2(2) μM | 2(2) μM | KKIIKKIIKKIWKW-NH2 [KIW-14] | – | –
1(1) μM | 1(1) μM | 2 µM | 4 µM | 4 µM | 8 µM | 2(2) μM | 2(2) μM | 4 µM | 8 µM | WIRRIWRRIR-NH2 [WIR-10] | – | –
2 µM | 8 µM | 4 µM | 64 µM | 16 µM | 128 µM | 4 µM | 8 µM | 8 µM | 32 µM | WIKKIWKKIIKEIK-NH2 [WIKE-14] | – | –
2 µM | 4 µM | 8 µM | 16 µM | 8 µM | 16 µM | 2 µM | 8 µM | 16 µM | 32 µM | RRIIRRIWRW-NH2 [RIW-10] | – | –
1 µM | 4 µM | 2 µM | 4 µM | 8 µM | 16 µM | 2 µM | 8 µM | 16 µM | 32 µM | RRIWRRWIRI-NH2 [RWI-10] | – | –
– | – | – | – | – | – | – | – | – | – | CC[C@H](C)[C@H](NC(=O)CN)C(=O)NCC(=O)N[C@@H](C)C(=O)N[C@H](C(=O)N[C@@H](CC(C)C)C(=O)N[C@@H](CCCCN)C(=O)N[C@H](C(=O)N[C@@H](CC(C)C)C(=O)N[C@H](C(=O)N[C@H](C(=O)NCC(=O)N[C@@H](CC(C)C)C(=O)N1CCC[C@H]1C(=O)N[C@@H](C)C(=O)N[C@@H](CC(C)C)C(=O)N[C@H](C(=O)N[C@@H](CO)C(=O)N[C@@H](Cc1c[nH]c2ccccc12)C(=O)N[C@H](C(=O)N[C@@H](CCCCN)C(=O)N[C@@H](CCCNC(=N)N)C(=O)N[C@@H](CCCCN)C(=O)N[C@@H](CCCNC(=N)N)C(=O)N[C@@H](CCC(N)=O)C(=O)N[C@@H](CCC(N)=O)C(N)=O)[C@@H](C)CC)[C@@H](C)CC)[C@@H](C)O)[C@@H](C)O)C(C)C)C(C)C [Melittin] | strong hemolytic effect | less than 20%
